The numbers were not newly measured in patent US20240335409A1, “SYSTEMS AND METHODS FOR DELIVERY OF PHENYLALANINE AND LACTATE” (Transdermal Biotechnology, Inc., priority 2022, published 2024), which cites them from elsewhere.

SMILES strings stand for the structures.

For `C[C@H](O)C(=O)N[C@@H](Cc1ccccc1)C(=O)O` [Lac-Phe, N-lactoyl-phenylalanine], the water solubility was greater than 2000 µM. Moreover, in the series with mice, the “effect on food intake and obesity” value was “effectively reduce food intake and obesity”.
